The record followed here is article PMC2861369 (Current pharmaceutical biotechnology, 2009).

The target of this data set is T1, EH (recombinant mouse sEH) (Mus musculus, UniProt P34914).
T1 sequence (P34914 1-554): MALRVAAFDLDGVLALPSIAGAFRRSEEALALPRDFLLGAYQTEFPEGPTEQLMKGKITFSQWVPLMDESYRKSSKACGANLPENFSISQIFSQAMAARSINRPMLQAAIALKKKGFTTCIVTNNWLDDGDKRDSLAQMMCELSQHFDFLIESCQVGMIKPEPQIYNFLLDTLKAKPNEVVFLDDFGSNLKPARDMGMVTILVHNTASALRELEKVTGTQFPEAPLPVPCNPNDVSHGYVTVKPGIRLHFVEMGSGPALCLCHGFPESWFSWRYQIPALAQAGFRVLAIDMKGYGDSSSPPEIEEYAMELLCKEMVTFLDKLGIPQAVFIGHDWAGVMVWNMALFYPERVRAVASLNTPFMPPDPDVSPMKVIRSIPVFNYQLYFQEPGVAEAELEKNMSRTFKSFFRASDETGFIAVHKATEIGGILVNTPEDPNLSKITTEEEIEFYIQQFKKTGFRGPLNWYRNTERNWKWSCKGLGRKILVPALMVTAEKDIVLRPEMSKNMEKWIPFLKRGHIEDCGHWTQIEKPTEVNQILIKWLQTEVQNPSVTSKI
The data set can be described thus: Effect of EH on the fluorescence of naphthyl derivatives. The data set is classed as binding. As to conditions: ex 330 nm, EH 0–100 nM.

Consider `O=C(Nc1ccc(O)c2ccccc12)NC1CCCCC1` [XIIa], for which the “Effect of EH on fluorescence of the naphthyl derivative (in words)” value was “appearance of a new peak and a clear enhancement of fluorescence”.
